Results as given in patent US20260325561A1, “4'-SUBSTITUTED NUCLEOSIDES AND NUCLEOTIDES AS ANTIVIRAL AGENTS” (THE SCRIPPS RESEARCH INSTITUTE, priority 2023, published 2026).

Assays:
RSV A2 = experiment: microbe, parasite or virus in culture; type: cell-based; details: human respiratory syncytial virus, HEp-2, 72 h, read-out: RSV A2 / Hep2 EC50
HRV 14 = experiment: microbe, parasite or virus in culture; type: cell-based, Human Rhinovirus 14 strain 1059; details: Rhinovirus B, H1-HeLa, 48 h, read-out: HRV / H1 HeLa B 14 EC50
Cytotoxicity, HFF = type: cell-based; details: human, hff cells; read-out: HCMV/HFF CC50
in vitro [1] = details: human, hepg2 cells
SARS-CoV-2 = experiment: microbe, parasite or virus in culture; type: cell-based, SARS-CoV-2 strain USA-WA1/2020; details: Severe acute respiratory syndrome coronavirus 2, HeLa-ACE2, 24 h, read-out: SARS-CoV-2 / HeLa-ACE2 EC50
in vitro [2] = details: human, hep2 cells
HCMV = experiment: HCMV/HFF antiviral assay; type: cell-based; details: Human betaherpesvirus 5, HFF
DENV-2 = experiment: microbe, parasite or virus in culture; type: cell-based, DENV-2 16681; details: Dengue virus, DENV2, HepG2, 24 h, read-out: DENV-2 / HepG2 EC50
in vitro [3] = details: human, h1 hela cells
in vitro [4] = details: human, hela-ace2 cells
HRV 16 = experiment: microbe, parasite or virus in culture; type: cell-based, Human Rhinovirus 16 strain 11757; details: Rhinovirus A, H1-HeLa, 48 h, read-out: HRV / H1 HeLa A16 EC50

Row | Structure (SMILES) | EC50 (RSV A2) | EC50 (HRV 14) | CC50 (Cytotoxicity, HFF) | CC50 at 72 h (in vitro [1]) | EC50 (SARS-CoV-2) | CC50 (in vitro [2]) | EC50 (HCMV) | EC50 (DENV-2) | CC50 (in vitro [3]) | CC50 at 24 h (in vitro [4]) | EC50 (HRV 16)
1 | Nc1ncnc2c1ccn2[C@@H]1O[C@](F)(CO)[C@@H](O)[C@]1(F)Cl [Example 6, (2S,3R,4S,5R)-5-(4-amino-7H-pyrrolo[2,3-d]pyrimidin-7-yl)-4-chloro-2,4-difluoro-2-(hydroxymethyl)tetrahydrofuran-3-ol] | > 10 µM | > 10 µM | > 99 µM | > 99 µM | > 10 µM | > 99 µM | > 10 µM | > 10 µM | > 99 µM | > 99 µM | 
2 | [N-]=[N+]=N[C@]1(CO)O[C@@H](n2ccc3c(N)ncnc32)[C@@](F)(Cl)[C@@H]1O [Example 7, (2R,3R,4S,5R)-5-(4-amino-7H-pyrrolo[2,3-d]pyrimidin-7-yl)-2-azido-4-chloro-4-fluoro-2-(hydroxymethyl)tetrahydrofuran-3-ol] | > 10 µM | > 10 µM | > 99 µM | > 99 µM | > 10 µM | > 99 µM | > 10 µM | > 10 µM | > 99 µM | > 99 µM | 
3 | O=c1[nH]cnc2c1ccn2[C@@H]1O[C@](F)(CO)[C@@H](O)[C@H]1O [Example 16, 7-((2R,3R,4S,5S)-5-fluoro-3,4-dihydroxy-5-(hydroxymethyl)tetrahydrofuran-2-yl)-3,7-dihydro-4H-pyrrolo[2,3-d]pyrimidin-4-one] | > 10 µM | > 10 µM | > 99 µM | > 99 µM | > 10 µM | > 99 µM | > 10 µM | > 10 µM | > 99 µM | > 99 µM | > 10 µM
4 | OC[C@@]1(F)O[C@@H](n2cc(Cl)c3cncnc32)[C@H](O)[C@@H]1O [Example 36, (2S,3S,4R,5R)-5-(5-chloro-7H-pyrrolo[2,3-d]pyrimidin-7-yl)-2-fluoro-2-(hydroxymethyl)tetrahydrofuran-3,4-diol] | 1 to 10 µM | > 10 µM | 1 to 10 µM | < 1 µM | 0.1 to 1 µM | 10 to 99 µM | 0.1 to 1 µM | < 0.1 µM | 10 to 99 µM | 1 to 10 µM | 
5 | C#C[C@]1(O)[C@H](n2ccc(N)nc2=O)O[C@](F)(CO)[C@H]1O [Example 44, 4-amino-1-((2R,3R,4S,5S)-3-ethynyl-5-fluoro-3,4-dihydroxy-5-(hydroxymethyl)tetrahydrofuran-2-yl)pyrimidin-2(1H)-one] | > 10 µM | > 10 µM |  | > 99 µM | > 10 µM | 10 to 99 µM |  | > 10 µM | 10 to 99 µM | > 99 µM | > 10 µM
6 | CC(=O)O[C@H]1[C@H](n2ncc(=O)[nH]c2=O)O[C@](F)(COC(=O)c2ccccc2)[C@H]1OC(C)=O [Example 45, (2S,3S,4R,5R)-2-((benzoyloxy)methyl)-5-(3,5-dioxo-4,5-dihydro-1,2,4-triazin-2(3H)-yl)-2-fluorotetrahydrofuran-3,4-diyl diacetate] | > 10 µM | > 10 µM |  | > 99 µM | > 10 µM | > 99 µM |  | > 10 µM | > 99 µM | > 99 µM | > 10 µM
7 | N#Cc1ncnc2c1ccn2[C@@H]1O[C@](F)(COC(=O)c2ccccc2)[C@@H](O)[C@H]1OC(=O)c1ccccc1 [Example 50, ((2S,3S,4R,5R)-4-(benzoyloxy)-5-(4-cyano-7H-pyrrolo[2,3-d]pyrimidin-7-yl)-2-fluoro-3-hydroxytetrahydrofuran-2-yl)methyl benzoate] | > 10 µM | > 10 µM |  | 1 to 10 µM | > 10 µM | 10 to 99 µM |  | 0.1 to 1 µM | 10 to 99 µM | 10 to 99 µM | > 10 µM
8 | CNc1nc(N)nc2c1ccn2[C@@H]1O[C@](F)(COC(=O)c2ccccc2)[C@@H](O)[C@H]1O [Example 56, ((2S,3S,4R,5R)-5-(2-amino-4-(methylamino)-7H-pyrrolo[2,3-d]pyrimidin-7-yl)-2-fluoro-3,4-dihydroxytetrahydrofuran-2-yl)methyl benzoate] | > 10 µM | > 10 µM |  | > 99 µM | > 10 µM | > 99 µM |  | > 10 µM | > 99 µM | > 99 µM | > 10 µM
9 | CCOc1nc(N)nc2c1ncn2[C@@H]1O[C@](F)(CO)[C@@H](O)C1(F)F [Example 60, (2S,3R,5R)-5-(2-amino-6-ethoxy-9H-purin-9-yl)-2,4,4-trifluoro-2-(hydroxymethyl)tetrahydrofuran-3-ol] | > 10 µM | > 10 µM | > 99 µM | > 99 µM | > 10 µM | > 99 µM | > 10 µM | > 10 µM | > 99 µM | > 99 µM | 
10 | CCOc1nc(N)nc2c1ncn2[C@@H]1O[C@](F)(CO)[C@@H](O)[C@@]1(C)Cl [Example 63, (2S,3R,4R,5R)-5-(2-amino-6-ethoxy-9H-purin-9-yl)-4-chloro-2-fluoro-2-(hydroxymethyl)-4-methyltetrahydrofuran-3-ol] | > 10 µM | > 10 µM |  | 10 to 99 µM | > 10 µM | > 99 µM | > 10 µM | > 10 µM | > 99 µM | > 99 µM | 
11 | CCOc1nc(N)nc2c1ncn2[C@@H]1O[C@](F)(CO)[C@@H](O)[C@]1(F)Cl [Example 66, (2S,3R,4S,5R)-5-(2-amino-6-ethoxy-9H-purin-9-yl)-4-chloro-2,4-difluoro-2-(hydroxymethyl)tetrahydrofuran-3-ol] | > 10 µM | > 10 µM |  | > 99 µM | > 10 µM | > 99 µM | > 10 µM | > 10 µM | > 99 µM | > 99 µM | 
12 | CCOc1nc(N)nc2c1ncn2[C@@H]1O[C@](F)(COP(=O)(N[C@@H](C)C(=O)OC(C)C)Oc2ccccc2)[C@@H](O)C1(F)F (stereo partly drawn) [Example 69, isopropyl ((((2S,3R,5R)-5-(2-amino-6-ethoxy-9H-purin-9-yl)-2,4,4-trifluoro-3-hydroxytetrahydrofuran-2-yl)methoxy)(phenoxy)phosphoryl)-L-alaninate] | > 10 µM | > 10 µM |  | 10 to 99 µM | > 10 µM | 10 to 99 µM | > 10 µM | 1 to 10 µM | 10 to 99 µM | 10 to 99 µM | 
13 | Nc1nc2c(ncn2[C@@H]2O[C@](F)(CO)[C@@H](O)C2(F)F)c(=O)[nH]1 [Example 71, 2-amino-9-((2R,4R,5S)-3,3,5-trifluoro-4-hydroxy-5-(hydroxymethyl)tetrahydrofuran-2-yl)-1,9-dihydro-6H-purin-6-one] | > 10 µM | > 10 µM |  | > 99 µM | > 10 µM | > 99 µM | > 10 µM | > 10 µM | > 99 µM | > 99 µM | 
